Reference: publication PMC11358092, “Caspofungin enhances the potency of rifampin against Gram-negative bacteria” (Frontiers in Microbiology, 2024)
Counter-ions that a name gives are not always drawn.

Test system: E. coli MG1655
Experiment: High-throughput screening of FDA-approved drug library for antibiotic adjuvants (growth inhibition, OD600)
Assay type: cell-based, Escherichia coli
Conditions: library drug alone, LB medium, 96-well, 8 h static culture at 37°C, relative to PMBN (positive) and DMSO (negative) controls, %, table head prints no unit
Method: To screen for antibiotic adjuvants against GNB, […] library drugs or polymyxin B nonapeptide (PMBN, positive control) or dimethyl sulfoxide (DMSO, negative control). After 8 h of static culture at 37°C, the optical density at 600 nm (OD600) was measured using a microplate reader. Percentage inhibition was calculated as (ODN – ODX)/(ODN – ODP) × 100%, where ODX is the OD600 value for a test treated with drug X, and ODP and ODN are the OD600 values for the positive and negative control, respectively.

SMILES | Growth inhibition, Compound
CC[C@H]1OC(=O)[C@H](C)[C@@H](O[C@H]2C[C@@](C)(OC)[C@@H](O)[C@H](C)O2)[C@H](C)[C@@H](O[C@@H]2O[C@H](C)C[C@H](N(C)C)[C@H]2O)[C@](C)(O)C[C@@H](C)CN[C@H](C)[C@@H](O)[C@]1(C)O [Azathramycin] | 114%
CN(C)[C@@H]1C(O)=C(C(N)=O)C(=O)[C@@]2(O)C(O)=C3C(=O)c4c(O)ccc(Cl)c4[C@@](C)(O)[C@H]3C[C@@H]12 [Chlortetracycline hydrochloride] | 111%
COCC1=C(C(=O)O)N2C(=O)[C@@H](NC(=O)/C(=N\OC)c3csc(N)n3)[C@H]2SC1 [Cefpodoxime (free acid)] | 108%
CCCN1C[C@H](C)[C@@H](O)[C@](C)(O)[C@@H](CC)OC(=O)[C@H](C)[C@@H](O[C@H]2C[C@@](C)(OC)[C@@H](O)[C@H](C)O2)[C@H](C)[C@@H](O[C@@H]2O[C@H](C)C[C@H](N(C)C)[C@H]2O)[C@](C)(O)C[C@H]1C [Gamithromycin] | 96%
C/C(=C\C(=O)OCCCCCCCCC(=O)[O-])C[C@@H]1OC[C@H](C[C@@H]2O[C@H]2[C@@H](C)[C@H](C)O)[C@@H](O)[C@H]1O.C/C(=C\C(=O)OCCCCCCCCC(=O)[O-])C[C@@H]1OC[C@H](C[C@@H]2O[C@H]2[C@@H](C)[C@H](C)O)[C@@H](O)[C@H]1O.O.O.[Ca+2] [Mupirocin calcium] | 96%
Oc1c(I)cc(Cl)c2cccnc12 [Clioquinol] | 94%
CN[C@@H]1[C@H](O[C@H]2[C@H](O[C@H]3[C@H](O)[C@@H](O)[C@H](NC(=N)N)[C@@H](O)[C@@H]3NC(=N)N)O[C@@H](C)[C@]2(O)CO)O[C@@H](CO)[C@H](O)[C@H]1O [Dihydrostreptomycin sulfate] | 106%
CC1(C)S[C@@H]2[C@H](NC(=O)[C@H](N)c3ccccc3)C(=O)N2[C@H]1C(=O)OCOC(=O)[C@@H]1N2C(=O)C[C@H]2S(=O)(=O)C1(C)C [Sultamicillin] | 106%
CC[C@H]1OC(=O)[C@H](C)[C@@H](O[C@H]2C[C@@](C)(OC)[C@@H](O)[C@H](C)O2)[C@H](C)[C@@H](O[C@@H]2O[C@H](C)C[C@H](N(C)C)[C@H]2O)[C@](C)(OC)C[C@@H](C)C(=O)[C@H](C)[C@@H](O)[C@]1(C)O [Clarithromycin] | 50%
C[C@@H](O)[C@H]1C(=O)N2C(C(=O)O)=C(S[C@@H]3CN[C@H](CNS(N)(=O)=O)C3)[C@H](C)[C@H]12.O [Doripenem Hydrate] | 77%
NCC[C@H](O)C(=O)N[C@@H]1C[C@H](N)[C@@H](O[C@H]2O[C@H](CN)[C@@H](O)[C@H](O)[C@H]2O)[C@H](O)[C@H]1O[C@H]1O[C@H](CO)[C@@H](O)[C@H](N)[C@H]1O.O=S(=O)(O)O.O=S(=O)(O)O [Amikacin disulfate] | 108%
Nc1n[n+]([O-])c2ccccc2[n+]1[O-] [Tirapazamine] | 114%
C[C@@H]1CC[C@H]2[C@@H](C)C(=O)O[C@@H]3O[C@@]4(C)CC[C@@H]1[C@]32OO4 [Artemisinin] | 40%
Cl.O=C1OC(CN2CCOCC2)CN1/N=C/c1ccc([N+](=O)[O-])o1 (stereo not shown) [Furaltadone hydrochloride] | 115%
CCn1cc(C(=O)O)c(=O)c2cnc(N3CCNCC3)nc21 [Pipemidic acid] | 105%
CC[C@H]1OC(=O)[C@H](C)[C@@H](O[C@H]2C[C@@](C)(OC)[C@@H](O)[C@H](C)O2)[C@H](C)[C@@H](O[C@@H]2O[C@H](C)C[C@H](N(C)C)[C@H]2O)[C@](C)(O)C[C@@H](C)CN(C)[C@H](C)[C@@H](O)[C@]1(C)O [Azithromycin dihydrate] | 111%
CCn1cc(C(=O)O)c(=O)c2ccc(C)nc21 [Nalidixic acid] | 74%
NCC[C@H](O)C(=O)N[C@@H]1C[C@H](N)[C@@H](O[C@H]2O[C@H](CN)[C@@H](O)[C@H](O)[C@H]2O)[C@H](O)[C@H]1O[C@H]1O[C@H](CO)[C@@H](O)[C@H](N)[C@H]1O.O=S(=O)(O)O.O=S(=O)(O)O [Amikacin Sulfate Salt] | 107%
O=C(N[C@H](CO)[C@H](O)c1ccc([N+](=O)[O-])cc1)C(Cl)Cl [Chloramphenicol] | 109%
CCCCCCCCN=c1ccn(CCCCCCCCCCn2ccc(=NCCCCCCCC)cc2)cc1 [Octenidine Dihydrochloride] | 91%
CCO/N=C(\C(=O)N[C@@H]1C(=O)N2C(C(=O)[O-])=C(Sc3nc(-c4cc[n+](C)cc4)cs3)CS[C@H]12)c1nsc(NP(=O)(O)O)n1 [Ceftaroline fosamil] | 93%
CN(C)c1ccc(O)c2c1C[C@H]1C[C@H]3[C@H](N(C)C)C(O)=C(C(N)=O)C(=O)[C@@]3(O)C(O)=C1C2=O [Minocycline hydrochloride] | 91%
NC[C@H]1O[C@H](O[C@H]2[C@H](O[C@@H]3O[C@H](CO)[C@@H](O)[C@H]3O)[C@@H](O)[C@H](N)C[C@@H]2N)[C@H](N)[C@@H](O)[C@@H]1O.O=S(=O)(O)O [Ribostamycin sulfate] | 110%
CCN1CCN(c2cc3c(cc2F)c(=O)c(C(=O)O)cn3C2CC2)CC1 [Enrofloxacin] | 95%
CN[C@@H]1[C@@H](O)[C@@H](O[C@@H]2[C@@H](O)[C@H](O[C@H]3O[C@H]([C@@H](C)NC)CC[C@H]3N)[C@@H](N)C[C@H]2N)OC[C@]1(C)O.O=S(=O)(O)O [Gentamycin sulfate] | 110%
Oc1c(Br)cc(Br)c2cccnc12 [Broxyquinoline] | 103%

SMILES | Growth inhibition, Compound
CCCCCCCCCCCCCCCC[N+](C)(C)C [Cetrimonium bromide] | 87%
COc1c(N2C[C@@H]3CCCN[C@@H]3C2)c(F)cc2c(=O)c(C(=O)O)cn(C3CC3)c12 [Moxifloxacin hydrochloride] | 111%
C=C[C@]1(C)C[C@@H](OC(=O)CS[C@@H]2CC[C@@H](N)C[C@H]2O)C2(C)[C@H](C)CCC3(CCC(=O)[C@H]32)[C@@H](C)[C@@H]1O.CC(=O)O (stereo partly shown) [Lefamulin acetate] | 98%
NC[C@H]1O[C@H](O[C@H]2[C@H](O)[C@@H](O[C@H]3O[C@H](CO)[C@@H](O)[C@H](N)[C@H]3O)[C@H](N)C[C@@H]2N)[C@H](N)[C@@H](O)[C@@H]1O [Bekanamycin] | 106%
CNC1CCCN(c2c(F)cc3c(=O)c(C(=O)O)cn(C4CC4)c3c2OC)C1 (stereo not shown) [Balofloxacin] | 108%
O.c1cnc2c(c1)ccc1cccnc12 [1, 10-Phenanthroline monohydrate] | 62%
O=C(N/N=C/c1ccc([N+](=O)[O-])o1)c1ccc(O)cc1 [Nifuroxazide] | 102%
C[C@@H]1CN(c2c(F)c(F)c3c(=O)c(C(=O)O)cn(C4CC4)c3c2F)C[C@H](C)N1 [Orbifloxacin] | 113%
C[C@H]1c2cccc(O)c2C(=O)C2=C(O)[C@]3(O)C(=O)C(C(N)=O)=C(O)[C@@H](N(C)C)[C@@H]3[C@@H](O)[C@@H]21 [Doxycycline hydrochloride] | 114%
S=C=NCc1ccccc1 [Benzyl isothiocyanate] | 71%
CCn1cc(C(=O)[O-])c(=O)c2ccc(C)nc21.[Na+] [Nalidixic acid sodium salt] | 63%
CC(=O)Oc1ccccc1C(=O)Nc1ncc([N+](=O)[O-])s1 [Nitazoxanide] | 36%
Oc1cc(Cl)ccc1Oc1ccc(Cl)cc1Cl [Triclosan] | 79%
CC1(C)S[C@@H]2[C@H](NC(=O)[C@H](N)c3ccccc3)C(=O)N2[C@H]1C(=O)OCOC(=O)[C@@H]1N2C(=O)C[C@H]2S(=O)(=O)C1(C)C [Sultamicillin Tosylate] | 93%
CN(C)[C@@H]1C(O)=C(C(N)=O)C(=O)[C@@]2(O)C(O)=C3C(=O)c4c(O)cccc4[C@@](C)(O)[C@H]3[C@H](O)[C@@H]12 [Oxytetracycline] | 66%
C[C@H]1c2cccc(O)c2C(=O)C2=C(O)[C@]3(O)C(=O)C(C(N)=O)=C(O)[C@@H](N(C)C)[C@@H]3[C@@H](O)[C@@H]21 [Doxycycline] | 118%
CCN1CCN(C(=O)N[C@@H](C(=O)N[C@@H]2C(=O)N3[C@@H]2SC(C)(C)[C@@H]3C(=O)O)c2ccccc2)C(=O)C1=O [Piperacillin sodium salt] | 88%
C[C@H]1COc2c(N3CCN(C)CC3)c(F)cc3c(=O)c(C(=O)O)cn1c23 [Levofloxacin hydrochloride] | 110%
N[C@@H](C(=O)N[C@@H]1C(=O)N2C(C(=O)O)=C(Cl)CS[C@H]12)c1ccccc1 [Cefaclor monohydrate] | 80%
COc1ccc(Cc2cnc(N)nc2N)cc1OC [Diaveridine] | 107%
CC1(C)S[C@@H]2[C@H](NC(=O)[C@H](NC(=O)N3CCN(S(C)(=O)=O)C3=O)c3ccccc3)C(=O)N2[C@H]1C(=O)O [Mezlocillin Sodium] | 89%
C[C@@H](O)[C@H]1C(=O)N2C(C(=O)O)=C(SCCN=CN)C[C@H]12 [Imipenem monohydrate] | 109%
CC1(C)S[C@@H]2[C@H](NC(=O)Cc3ccccc3)C(=O)N2[C@H]1C(=O)O [Penicillin G sodium salt] | 38%
CC(=O)OCC1=C(C(=O)O)N2C(=O)[C@@H](NC(=O)Cc3cccs3)[C@H]2SC1 [Cephalotin acid] | 92%
CC(C)(O/N=C(\C(=O)N[C@@H]1C(=O)N2C(C(=O)[O-])=C(C[n+]3ccccc3)CS[C@H]12)c1csc(N)n1)C(=O)O [Ceftazidime] | 53%
Nc1nc(F)nc2c1ncn2[C@@H]1O[C@H](COP(=O)(O)O)[C@@H](O)[C@@H]1O [Fludarabine Phosphate] | 43%
